This note sets out measurements from patent US20260365682A1, “MODULATORS OF TNF-ALPHA ACTIVITY” (Forward Therapeutics, Inc., priority 2022, published 2026).

In the assay the target is T1, TNF-α (Homo sapiens, UniProt P01375).
T1 construct: purchased R&D 210-TA-020/CF
Put plainly: TNF-α Induced HEK Blue Cellular Assay (secreted alkaline phosphatase expression, QUANTI-Blue). Type of assay: cell-based. Conditions: HEK Blue TNFα reporter cells; TNF-α 100 μg/ml; 24 hrs at 37° C.; inhibition of secreted alkaline phosphatase; read-out: IC50 value. The gist of the method: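 HEK Blue TNFα reporter cells (10,000/well) in DMEM with 10% FBS received compound ([…] to 0.5 nM final) and TNF-α at […] final for 24 h at 37° C. Secreted alkaline phosphatase read with QUANTI-Blue at 620 nm. IC50 came from a 4-parameter logistic fit after normalising to unstimulated and stimulated DMSO controls.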

Some results are limits rather than exact numbers.

T1 sequence (P01375 77-233 limits assumed): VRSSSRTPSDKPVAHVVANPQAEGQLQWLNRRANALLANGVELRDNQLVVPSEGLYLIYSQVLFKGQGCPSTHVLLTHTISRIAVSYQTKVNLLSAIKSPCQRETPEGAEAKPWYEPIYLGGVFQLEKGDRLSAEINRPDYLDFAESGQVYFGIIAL

Broadly, the IC50 is the concentration at which inhibition is half-maximal. With `[2H]C([2H])([2H])N1C(=O)c2cccc(OC(F)F)c2[C@H]2C[C@@H]1c1nc3ccc(C#Cc4nnc(NC(C)=O)s4)cc3n12` [Example 260, N-(5-(((7R,14R)-1-(difluoromethoxy)-6-(methyl-d3)-5-oxo-5,6,7,14-tetrahydro-7,14-methanobenzo[f]benzo[4,5]imidazo[1,2-a][1,4]diazocin-11-yl)ethynyl)-1,3,4-thiadiazol-2-yl)acetamide], the IC50 is under 100 nM. As to `[2H]C([2H])([2H])N1C(=O)c2cccc(OC(F)F)c2[C@H]2C[C@@H]1c1nc3ccc(C#Cc4nnc(NC(=O)OC(C)(C)C)s4)cc3n12` [Example 261, tert-butyl (5-(((7R,14R)-1-(difluoromethoxy)-6-(methyl-d3)-5-oxo-5,6,7,14-tetrahydro-7,14-methanobenzo[f]benzo[4,5]imidazo[1,2-a][1,4]diazocin-11-yl)ethynyl)-1,3,4-thiadiazol-2-yl)carbamate], the IC50 was under 100 nM.

In the case of `[2H]C([2H])([2H])N1C(=O)c2cccc(OC(F)F)c2[C@H]2C[C@@H]1c1nc3ccc(C#CC#N)cc3n12` [Example 262, 3-((7R,14R)-1-(difluoromethoxy)-6-(methyl-d3)-5-oxo-5,6,7,14-tetrahydro-7,14-methanobenzo[f]benzo[4,5]imidazo[1,2-a][1,4]diazocin-11-yl)propiolonitrile], the IC50 was under 100 nM. Then `[2H]C([2H])([2H])N1C(=O)c2cccc(OC(F)F)c2[C@H]2C[C@@H]1c1nc3ccc(C#Cc4nnc(N)s4)cc3n12` [Example 263, (7R,14R)-11-((5-amino-1,3,4-thiadiazol-2-yl)ethynyl)-1-(difluoromethoxy)-6-(methyl-d3)-6,7-dihydro-7,14-methanobenzo[f]benzo[4,5]imidazo[1,2-a][1,4]diazocin-5(14H)-one], with under 100 nM.
